The data set deals with tracheal/bronchial epithelial cell membrane inserts (EpiAirway). As to the kind of experiment: Permeation of carbetocin formulations across tracheal/bronchial epithelial cell membrane inserts (EIA of basolateral media). Type of data set: in vitro ADME. To be noted: human, 1 h. The procedure:
Permeation studies on varying formulations of carbetocin were completed using tracheal/bronchial epithelial cell membrane inserts. Samples were evaluated for appearance, color, clarity, pH, osmolality, cell viability using an MTT assay, cytotoxicity using an LDH assay, and transepithelial resistance and permeation.
Tracheal/bronchial epithelial cell membrane inserts (EpiAirway, MatTek Corp., Ashland, Mass.) were received the day before the experiment. Each tissue insert was placed in a well of a 6 well plate which contained 0.9 ml of serum free media and cultured at 37° C. for 24 hours to allow the tissues to equilibrate. The day of the experiment, transepithelial electrical resistance measurements were taken for each insert using a Tissue Resistance Measurement Chamber connected to an Epithelial Voltohmeter (World Precision Instruments, Inc., Sarasota, Fla.).
After the background transepithelial electrical resistance was determined, 1 ml of media was placed in the bottom of each well in a six well plate. The inserts were inverted and drained and placed into new wells with fresh media. For samples 1-12, 100 μl of the formulation to be tested was then added to an insert. For samples 13-92, 25 μl of the formulation was added to each insert. The inserts were placed in a shaking incubator at 100 rpm and 37° C. for one hour. The tissue inserts were then removed from the incubator. […]

*1 amine or outer side, *2 acyl side, *3 side chain or, on linkers, in order; H or OH if unused. Where a SMILES comes first, the peptide text is derived from it. Bridges are numbered along the chain shown (N, C = ends). X1 = O=C(CCC[*:2])[*:1]

For the molecule `CC[C@H](C)[C@@H]1NC(=O)[C@H](Cc2ccc(OC)cc2)NC(=O)CCCSC[C@@H](C(=O)N2CCC[C@H]2C(=O)N[C@@H](CC(C)C)C(=O)NCC(N)=O)NC(=O)[C@H](CC(N)=O)NC(=O)[C@H](CCC(N)=O)NC1=O` [carbetocin, 1-butanoic acid-2-(O-methyl-L-tyrosine)-1-carbaoxytocin] (Y(Me)IQNCPLG-NH2; linker N-5 via X1), the permeation result is “less than 1.0%”.

These data come from patent publication US20070032410A1, “COMPOSITIONS AND METHODS FOR THE TREATMENT OF PSYCHIATRIC DISORDERS” (Atossa Healthcare, Inc., priority 2000, published 2007).
